Read-outs that look alike come from different tables or passages of the source.
Columns and labels:
rats suffering from TBI = details: moderate to severe TBI, 16 mg/kg, 72 hours post-injury, p<0.05 (FIG. 1); cited from earlier work
[1] = system: rats that have suffered a concussion (mTBI); assay: Morris Water Maze latency to platform in mTBI (concussion) model; assay type: in vivo, rat; details: versus vehicle-injured rats (FIG. 8)
severe TBI patients = details: six months; cited from earlier work
[2] = system: moderate to severe TBI patients; details: cited from earlier work
[3] = biological target: T1, classical progesterone receptor (PR) (Homo sapiens, UniProt P06401); details: cited from earlier work
T1 sequence (P06401 1-933): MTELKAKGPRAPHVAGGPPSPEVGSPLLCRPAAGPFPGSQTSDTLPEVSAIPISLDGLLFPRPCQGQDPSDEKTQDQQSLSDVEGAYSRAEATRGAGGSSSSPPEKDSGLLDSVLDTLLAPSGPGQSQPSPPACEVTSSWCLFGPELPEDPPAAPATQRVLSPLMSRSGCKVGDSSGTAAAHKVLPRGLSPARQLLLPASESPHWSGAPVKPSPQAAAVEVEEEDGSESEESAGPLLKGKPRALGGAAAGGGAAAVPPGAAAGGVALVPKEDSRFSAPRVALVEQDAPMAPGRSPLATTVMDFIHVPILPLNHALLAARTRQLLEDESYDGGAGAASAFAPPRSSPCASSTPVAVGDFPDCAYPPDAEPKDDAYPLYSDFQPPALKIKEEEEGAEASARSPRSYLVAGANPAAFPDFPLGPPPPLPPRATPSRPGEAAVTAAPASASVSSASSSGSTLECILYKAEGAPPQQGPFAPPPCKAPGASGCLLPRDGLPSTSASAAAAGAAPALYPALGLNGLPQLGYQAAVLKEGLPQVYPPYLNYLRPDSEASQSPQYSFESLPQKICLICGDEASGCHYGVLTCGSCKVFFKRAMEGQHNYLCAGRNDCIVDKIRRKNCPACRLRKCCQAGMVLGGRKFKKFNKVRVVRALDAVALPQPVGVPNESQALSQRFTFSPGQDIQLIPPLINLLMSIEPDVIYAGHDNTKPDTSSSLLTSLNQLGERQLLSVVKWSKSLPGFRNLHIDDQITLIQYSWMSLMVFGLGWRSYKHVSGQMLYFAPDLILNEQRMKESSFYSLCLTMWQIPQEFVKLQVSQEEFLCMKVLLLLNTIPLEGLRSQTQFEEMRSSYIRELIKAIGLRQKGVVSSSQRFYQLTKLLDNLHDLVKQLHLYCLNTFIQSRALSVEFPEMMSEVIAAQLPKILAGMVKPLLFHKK

glutathione reductase = details: 72 hours post-injury, p<0.01 (FIG. 2); cited from earlier work

| SMILES | brain water content (measure of edema) (rats suffering from TBI) | latency to platform, Morris Water Maze ([1]; Prog administered post-acutely (15 minutes post)) | latency to platform, Morris Water Maze ([1]; Prog administered prophylactically (15 minutes prior)) | neurological outcomes long-term (severe TBI patients) | 30 days post-injury outcomes (Glasgow Outcome Scale-Extended, Disability Rating Scale) ([2]; moderate TBI patients) | 30 days post-injury outcomes (Glasgow Outcome Scale-Extended, Disability Rating Scale) ([2]; patients with severe brain injuries) | activation of the classical progesterone receptor (PR) [3] | anti-oxidant activity of glutathione reductase (glutathione reductase) |
| --- | --- | --- | --- | --- | --- | --- | --- | --- |
| CC(=O)[C@H]1CC[C@H]2[C@@H]3CC[C@H]4C[C@H](O)CC[C@]4(C)[C@H]3CC[C@]12C [ALLO, allopregnanolone] | normalizes brain water content |  |  |  |  |  |  |  |
| CC(=O)[C@H]1CC[C@H]2[C@@H]3CCC4=CC(=O)CC[C@]4(C)[C@H]3CC[C@]12C [Prog, progesterone] | normalizes brain water content | decreases latency to platform | decreases latency to platform | better neurological outcomes long-term | better outcomes | little measurable difference |  |  |
| CC(=O)[C@@H]1CC[C@@H]2[C@H]3CCC4=CC(=O)CC[C@@]4(C)[C@@H]3CC[C@]21C [ent-Prog, ent-progesterone] | normalizes brain water content |  |  |  |  |  | does not activate the classical progesterone receptor (PR) | significantly increases the anti-oxidant activity of glutathione reductase compared to all other groups |
